Assay results published in patent US10925261B2, “Method for inducing feminization in Tilapia aurea via immersion with ethinyl estradiol” (GALLANT OCEAN INTERNATIONAL, INC., priority 2018, dated 2021).

Test system: Tilapia aurea fry
Assay: Induction of feminization in Tilapia aurea fry via immersion treatment with ethinyl estradiol
Assay type: in vivo
Conditions: 3 minutes, 25° C., 3 dph fry
Experimental: Males and females of Tilapia aurea (about 12 months of age) provided by Prof. Chien-Hsien Kuo from the Department of Aquatic Biosciences at National Chiayi University (Taiwan) served as the parent fish in the following example. The male and female fish were separately raised in concrete ponds provided with water maintained at 25° C. and about 6 mg/L of dissolved oxygen under natural light, and were provided with feed ad libitum. Mating was carried out with a male-to-female ratio of 2:5. Fertilized eggs were flushed out from the oral cavity of the female fish to be collected, followed by incubation at 25° C. for 7 to 14 days. 3 dph fish fry were obtained.
Two immersion solutions respectively having ethinyl estradiol concentrations shown in Table 1 below were each prepared as follows. An appropriate amount of ethinyl estradiol was dissolved in 10 mL of ethanol, followed by mixing with 5 L of water in a water tank.
5 trials of feminization induction were conducted using a respective one of the two immersion solutions. Specifically, for each trial of feminization induction, the 3 dph Tilapia aurea fry (the amount thereof is shown in Table 1) were placed in the respective immersion solution at 25° C. for 3 minutes. […] After seven months of breeding, the gender of all the surviving fish was observed, and the feminization rate (i.e. the percentage of females) was calculated.

## C#C[C@]1(O)CC[C@H]2[C@@H]3CCc4cc(O)ccc4[C@H]3CC[C@@]21C [ethinyl estradiol]
Immersion 142.85 ppm, gender observed after seven months of breeding, trial 5
  Feminization rate (%) (percentage of females): 87%
Immersion 142.85 to 200 ppm, all 5 trials
  Feminization rate of each trial: ≥ 87%
